Experimental data: US9029553B2, “2-anilino nicotinyl linked 2-amino benzothiazole conjugates and process for the preparation thereof” (Council of Scientific & Industrial Research, priority 2011, dated 2015)

Tests used:
502713 = assay: SRB percentage growth inhibition (NCI protocol); type: cell-based; conditions: Homo sapiens, 48 hrs exposure
Procedure: (§1) 2-Anilino nicotinyl linked 2-amino benzothiazoles conjugates of formula 4-8 have been tested against ten and eleven human cancer cell lines for 10 and 1 μM respectively derived from nine cancer types (leukemia, non-small cell lung cancer, colon cancer, CNS cancer, melanoma, ovarian cancer, renal cancer, prostate cancer and breast cancer) as per NCI protocol. For each compound, percentage of growth inhibition was calculated for individual cell lines at a minimum of two concentrations (1 and 10 μM). A protocol of 48 hrs continuous drug exposure was used, and a sulforhodamine B (SRB) protein assay was used to estimate cell viability or growth. The percentage of growth inhibition compared with the control was calculated in table 1 and table 2.

A549 = assay: SRB percentage growth inhibition (NCI protocol); type: cell-based; conditions: Homo sapiens, 48 hrs exposure
Procedure: as §1

DU145 = assay: SRB percentage growth inhibition (NCI protocol); type: cell-based; conditions: Homo sapiens, DU-145, 48 hrs exposure
Procedure: as §1

HCT-15 [1] = assay: SRB percentage growth inhibition (NCI protocol); type: cell-based; conditions: Homo sapiens, 48 hrs exposure
Procedure: as §1

HEP-2 = assay: SRB percentage growth inhibition (NCI protocol); type: cell-based; conditions: Homo sapiens, 48 hrs exposure
Procedure: as §1

Hela [2] = assay: SRB percentage growth inhibition (NCI protocol); type: cell-based; conditions: Homo sapiens, 48 hrs exposure
Procedure: as §1

IGR-OV-1 = assay: SRB percentage growth inhibition (NCI protocol); type: cell-based; conditions: Homo sapiens, IGROV-1, 48 hrs exposure
Procedure: as §1

IMR-32 = assay: SRB percentage growth inhibition (NCI protocol); type: cell-based; conditions: Homo sapiens, 48 hrs exposure
Procedure: as §1

MCF-7 [3] = assay: SRB percentage growth inhibition (NCI protocol); type: cell-based; conditions: Homo sapiens, MCF7, 48 hrs exposure
Procedure: as §1

OVCAR-5 = assay: SRB percentage growth inhibition (NCI protocol); type: cell-based; conditions: Homo sapiens, 48 hrs exposure
Procedure: as §1

PC-3 = assay: SRB percentage growth inhibition (NCI protocol); type: cell-based; conditions: Homo sapiens, 48 hrs exposure
Procedure: as §1

SK-NS-H = assay: SRB percentage growth inhibition (NCI protocol); type: cell-based; conditions: Homo sapiens, SK-N-SH, 48 hrs exposure
Procedure: as §1

SiHa [4] = assay: SRB percentage growth inhibition (NCI protocol); type: cell-based; conditions: Homo sapiens, 48 hrs exposure
Procedure: as §1

Sw-620 = assay: SRB percentage growth inhibition (NCI protocol); type: cell-based; conditions: Homo sapiens, 48 hrs exposure
Procedure: as §1

HCT-15 [5] = assay: MTT inhibition of cell proliferation; type: cell-based; conditions: Homo sapiens, 48 h
Excerpt: (§2) In order to determine the mode of action of cell death in cancer cells, first we explored the cytotoxic potential of different structural analogs of benzothiazoles on different human cancer cell lines. […] These compounds have limited or no cytotoxicity to cervical cancer SiHa, HeLa cells, breast cancer MCF-7 cells and colon cancer HCT-15 cells.

HL-60 = assay: MTT inhibition of cell proliferation; type: cell-based; conditions: Homo sapiens, 48 h
Excerpt: as §2

Hela [6] = assay: MTT inhibition of cell proliferation; type: cell-based; conditions: Homo sapiens, 48 h
Excerpt: as §2

MCF-7 [7] = assay: MTT inhibition of cell proliferation; type: cell-based; conditions: Homo sapiens, MCF7, 48 h
Excerpt: as §2

SiHa [8] = assay: MTT inhibition of cell proliferation; type: cell-based; conditions: Homo sapiens, 48 h
Excerpt: as §2

[9] = test system: normal monkey kidney CV-1 cells; assay: MTT cytotoxicity in normal cells; type: cell-based; conditions: Primates
Procedure: These compounds were also evaluated for their cytotoxic potential in normal cells and for these purpose their IC50 value were also determine in normal monkey kidney CV-1 cells by using MTT method. The ratios of normal to cancer cells IC50 value were ranges from 10-1000 times (Table 5).

HL-60 cells = assay: Flow cytometric analysis of reactive oxygen species (DCFH-DA); type: cell-based, human; conditions: 1 μM; for increase in DCF positive cell population (ROS): 24 h, HL-60, compared to control
Procedure: It was clear that these compounds were cytotoxic and induce apoptosis in HL-60 cells, now we have to found out the early events which were responsible for the induction of apoptosis like reactive oxygen species (ROS) or nitric oxide (NO) generation. Intracellular peroxide (ROS) in the cells was measured by DCFH-DA by using flow cytometry. Cells were incubated with tested compounds at 1 μM for 24 h in HL-60 cells and analyzed by flow cytometry after double staining with DCFH-DA (FIG. 7). Cells were analyzed for fluorescence intensity in FL1 vs. cell count. There was hardly any DCF fluorescence (ROS positive cells) in the untreated HL-60 cells, and this status remained unchanged when cells were incubated for 24 hr with compounds 7 and 8. […] Compounds 4 and 6 also induce the generation of peroxide in HL-60 cells (31 and 16% increase, respectively).

topoisomerase II = assay: DNA topoisomerase-II inhibition assay; type: biochemical; conditions: 1 μM; etoposide 100 μM
Excerpt: DNA topoisomerases are nuclear enzymes capable of resolving the topology of DNA to allow its replication. So, proper relaxing is very important for successful replication cycle and thus for the cell survival. However, topoisomerases also serve as targets in the anticancer chemotherapy in which cell death serves an important purpose. Moreover, the topoisomerase targeting drugs can either be classified either topo posions, which act by stabilizing enzyme DNA cleavable complexes leading to DNA break or topo catalytic inhibitors, which act by stabilizing enzyme where both DNA strands remain intact and no DNA breaks occur. Importantly, all the topoisomerase inhibitors finally induce apoptosis. In the present study, all the five compounds 4-8 were first subjected to topoisomerase II inhibition assay.

[10] = test system: Ehrlich Ascites Carcinoma (EAC); assay: In vivo anticancer activity, Ehrlich ascites carcinoma; set-up: species or system Swiss mice; conditions: for No. of deaths / toxicity to animals: EAC mice
Procedure: Model: Ehrlich Ascites Carcinoma (EAC)
Ehrlich ascites carcinoma (EAC) cells were collected from the peritoneal cavity of the swiss mice harbouring 8-10 days old ascitic tumor. 1×10^7 EAC cells were injected intraperitoneally in Swiss mice selected for the experiment on day 0. The next day, animals were randomized and divided into different groups. The treatment groups contained 7 animals each and control group contained 10 animals. Treatment groups were treated with different doses of test substances intraperitoneally from day 1-9. One of the treatment group received 5-fluorouracil (20 mg/kg, i.p) and it served as positive control. The tumor bearing control group was similarly administered normal saline (0.2 ml, i.p.). On day 12, animals were sacrificed and ascitic fluid was collected from peritoneal cavity of each mouse for the evaluation of tumor growth. Percent tumor growth inhibition was calculated based on the total number of tumor cells present in the peritoneal cavity as on day 12 of the experiment using the following formula.

Row | SMILES | inhibition at 10 µM 502713 [%] | inhibition at 1 µM (A549) [%] | inhibition at 10 µM (A549) [%] | inhibition at 1 µM (DU145) [%] | inhibition at 10 µM (DU145) [%] | inhibition at 1 µM (HCT-15 [1]) [%] | inhibition at 10 µM (HCT-15 [1]) [%] | inhibition at 1 µM (HEP-2) [%] | inhibition at 10 µM (HEP-2) [%] | inhibition at 1 µM (Hela [2]) [%] | inhibition at 1 µM (IGR-OV-1) [%] | inhibition at 1 µM (IMR-32) [%] | inhibition at 10 µM (IMR-32) [%] | inhibition at 1 µM (MCF-7 [3]) [%] | inhibition at 1 µM (OVCAR-5) [%] | inhibition at 10 µM (OVCAR-5) [%] | inhibition at 10 µM (SK-NS-H) [%] | inhibition at 10 µM (SiHa [4]) [%] | inhibition at 1 µM (Sw-620) [%] | inhibition at 10 µM (Sw-620) [%] | other results
1 | O=C(Nc1nc2ccc([N+](=O)[O-])cc2s1)c1cccnc1Nc1ccccc1 [Compound 4, N-3-(6-Nitro-1,3-benzothiazol-2-yl)-2-(phenylamino)-3-pyridinecarboxamide] | 63 | 23 | 31 | 35 | 52 | 6 | 66 | 50 | 26 | 9 | 29 | 35 | 45 | 44 | 29 | 50 | 48 | 53 | 9 | 65 | inhibition at 1 µM (PC-3): 22%; IC50 (HCT-15 [5]): > 100 µM; IC50 (HL-60): 0.58 µM; IC50 (Hela [6]): > 100 µM; IC50 (MCF-7 [7]): > 100 µM; IC50 (SiHa [8]): 28 µM; IC50 [9]: 70 µM; increase in DCF positive cell population (ROS) (HL-60 cells): 31%; topoisomerase-II inhibition (DNA relaxation) (topoisomerase II): more potent effect relative to etoposide; Growth Inhibition (%) ([10]; 10 mg/Kg i.p. day 1-9, read day 12): 42.21%; No. of deaths / toxicity to animals ([10]; 10 mg/Kg i.p.): 2; No. of deaths / toxicity to animals ([10]; 10 mg/Kg i.p., listed as Comp 4): 2/7; Growth Inhibition (%) ([10]; 50 mg/Kg i.p. day 1-9, read day 12): Intolerable; No. of deaths / toxicity to animals ([10]; 50 mg/Kg i.p.): toxic; No. of deaths / toxicity to animals ([10]; 50 mg/Kg i.p., listed as Comp 4): 7/7
2 | COc1ccc(Nc2ncccc2C(=O)Nc2nc3ccc([N+](=O)[O-])cc3s2)cc1 [Compound 5, N3-(6-nitro-1,3-benzothiazol-2-yl)-2-(4-methoxyanilino)nicotinamide] | 59 | 27 | 3 | 53 | 32 | 9 | 47 | 38 | 5 | 7 | 27 | 53 | 55 | 25 | 31 | 52 | 64 | 66 | 15 | 64 | inhibition at 1 µM (PC-3): 21%; IC50 (HCT-15 [5]): > 100 µM; IC50 (HL-60): 0.7 µM; IC50 (Hela [6]): > 100 µM; IC50 (MCF-7 [7]): > 100 µM; IC50 (SiHa [8]): 28 µM; IC50 [9]: 10 µM; increase in DCF positive cell population (ROS) (HL-60 cells): ~44%; topoisomerase-II inhibition (DNA relaxation) (topoisomerase II): more potent effect relative to etoposide; Growth Inhibition (%) ([10]; 5 mg/Kg i.p. day 1-9, read day 12): 20.90%; No. of deaths / toxicity to animals ([10]; 5 mg/Kg i.p.): 0/7; Growth Inhibition (%) ([10]; 30 mg/Kg i.p. day 1-9, read day 12): Intolerable; No. of deaths / toxicity to animals ([10]; 30 mg/Kg i.p.): toxic; No. of deaths / toxicity to animals ([10]; 30 mg/Kg i.p., listed as Comp 5): 7/7
3 | O=c1[nH]cc(F)c(=O)[nH]1 [Compound 5-FU, 5-fluorouracil, reference compound] | 21 | – | – | – | – | 46 | 44 | – | – | – | – | – | 71 | – | – | 22 | 7 | 44 | 44 | 76 | –
4 | O=C(Nc1nc2ccc([N+](=O)[O-])cc2s1)c1cccnc1Nc1ccc(Cl)cc1Cl [Compound 7] | 2 | 15 | 19 | 36 | 39 | 4 | 75 | 46 | 14 | 0 | 24 | 42 | 48 | 80 | 19 | 0 | 50 | 35 | 12 | 61 | inhibition at 1 µM (PC-3): 27%; IC50 (HCT-15 [5]): > 100 µM; IC50 (HL-60): 0.4 µM; IC50 (Hela [6]): > 100 µM; IC50 (MCF-7 [7]): > 100 µM; IC50 (SiHa [8]): > 50 µM; IC50 [9]: 0.8 µM; DCF fluorescence (ROS positive cells), in words (HL-60 cells; 24 hr, HL-60): unchanged; topoisomerase-II inhibition (DNA relaxation) (topoisomerase II): more potent effect relative to etoposide; Growth Inhibition (%) ([10]; 20 mg/Kg i.p. day 1-9, read day 12): 63.89%; No. of deaths / toxicity to animals ([10]; 20 mg/Kg i.p.): without any deaths; No. of deaths / toxicity to animals ([10]; 20 mg/Kg i.p., listed as Comp 7): 0/7; Growth Inhibition (%) ([10]; 40 mg/Kg i.p. day 1-9, read day 12): Intolerable; No. of deaths / toxicity to animals ([10]; 40 mg/Kg i.p.): 7/7
5 | CC(=O)O[C@H]1C(=O)[C@@]2(C)[C@H]([C@H](OC(=O)c3ccccc3)[C@]3(O)C[C@H](OC(=O)[C@H](O)[C@@H](NC(=O)c4ccccc4)c4ccccc4)C(C)=C1C3(C)C)[C@]1(OC(C)=O)CO[C@@H]1C[C@@H]2O [Pac, paclitaxel, reference compound] | 59 | 34 | 41 | 44 | 42 | – | 37 | – | – | – | – | – | 46 | – | – | 51 | 20 | 49 | – | 73 | –
